Assay results published in patent US10350334B2, “Catheter locking solution having antimicrobial and anticoagulation properties” (Becton, Dickinson and Company, priority 2009, dated 2019).
Where “and” joins values, the source holds several entries; their conditions need not be identical. Equal entries are not always repeated.

Legend:
[1] = test system: sheep plasma; assay: Sheep's Plasma Clotting Assay (USP coagulation test); assay type: biochemical; conditions: for Equivalence to Heparin: calculated from volumes giving 50% clotting versus heparin standard
Method: In order to understand what the working concentration range could be for the anesthetics tested, a Sheep's Plasma Clotting Assay was performed. This test is based on the United States Pharmacopeia (USP) standard test for coagulation and is often used to understand heparin potency. […] Sheep plasma was thawed in a water bath set to 37° C. To facilitate thawing, the plasma in the bottle was inverted every 15 minutes. The plasma was thawed after about 45-60 minutes. The thawed sheep plasma was filtered through glass wool or filtered into a clean glass beaker or flask, to remove particulate matter and to activate it. About 70-80 mL of filtered sheep plasma was collected. Next, a set of test tubes were prepared (VWR Disposable 13×100-mm) in a 6×12 rack. Ten test tubes were needed for each test solution including ten test tubes for the heparin standard. […] For each test solution, every (10) test tube received different volumes of 0.9% NaCl. […] Next, the local anesthetics were added, namely, tetracaine at 30 mg/mL, dibucaine at 30 mg/mL, and bupivacaine at 38 mg/mL. Each of the ten test tubes received different volumes of test solutions, starting with 280 μL and increasing in volume by 20 μL until reaching a volume of 460 μL at the tenth tube. The total volume of saline and test solutions in each of the tubes was 800 μL. A standard solution, namely, USP heparin sodium standard, was also prepared in the same way, with the starting concentration of heparin being 5.6 U/mL. Next, 1 mL of sheep plasma for heparin assay (Bio-Supplies, Inc, P-SPR-1500) was pipetted into each tube, and the rack was gently shaken to ensure mixing. Two hundred μL of a 1% CaCl2 solution was placed into each tube. The total volume for each tube is 2 mL. Each tube was capped with a VWR Plug-type cap, and contents of each tube were inverted six times to ensure that the entire inner wall of each tube was wet. Tubes were incubated for 1 hour at room temperature. After the 1 hour time period, the extent of clotting in each tube was determined by gently shaking each individual test tube (tapping the end gently is acceptable) and then tilting the tube to observe a clot both vertically and horizontally. The degree to which each tube developed a clot was recorded using the following criteria (per the USP Standard) for the visual inspection of the tubes: • 0% Clotting=No apparent clot formed. • 25% Clotting=Small observable clot with mostly liquid. Clot is very mobile. • 50% Clotting=Plasma is completely clotted but mobile. • 75% Clotting=Clot is not mobile but liquid is still present. • 100% Clotting=Clot is not mobile and no liquid is present.
Because of the testing protocol, starting concentrations of anesthetics were diluted from the original formulation. Calculations can be made to compare the efficacy of these anesthetics to the standard anticoagulant heparin by calculating the point at which both standard and test samples yield 50% clotting. Using this calculation, the anesthetic concentration can be referenced back to a measure of U/mL of heparin equivalence.

[2] = test system: P. aeruginosa; assay: Minimum Biofilm Inhibitory Concentration (MBIC) test; assay type: cell-based, Pseudomonas aeruginosa; conditions: for MBIC: adhered cells, 24 hours incubation; for MBIC Assuming 2 mL lock volume: amount in 2 mL lock volume
Method: (§1) To further evaluate the efficacy of local anesthetics in antimicrobial lock solutions of the present invention, the minimum concentration at which these drugs can inhibit biofilm growth was tested. The local anesthetics identified in Table 4 were tested against three different species of bacteria identified in Table 3 to assess the antimicrobial efficacy against adhered microbes. It is known that adhered microbes, or biofilms, can be more resistant to antimicrobials than planktonic cells.
(§2) Experiments were conducted against adhered microbes as follows: first, a test tube containing 10 mL of sterile TSB was inocubated with BD BBL™ Qualiswab™, with the strain of interest. The tube was placed in an incubator at 37° C. overnight. The next day, a flask containing 25 mL of sterile TSB (or Sabouraud Dextrose Broth (SDB) for fungal species) was inoculated with 1 mL of bacterial suspension. The flask was placed in an incubator at 37° C. and shaken at 150 RPM. The next day a new flask containing 25 mL of TSB (or SDB) media was inoculated with 1 mL from the previous culture. The bacterial or fungal species were allowed to grow to log phase.
(§3) After the microbes entered the log phase, their concentration was checked to ensure that they had reached a minimum of 1×10^8 CFU/mL per a 0.5 MacFarland standard. Microbes were diluted to a concentration of 1×10^5 CFU/mL using a nephelometer and 200 μL of the microbial suspensions were plated on each of the wells of a 96 well plate. The plate was incubated in a standard incubator at 37° C. for 2 hours to allow for microbial cell adhesion. Next, dilutions of the desired concentrations of antimicrobials were prepared. In a separate, blank plate, 1:2 serial dilutions were prepared with the highest concentration of the antimicrobial to the left of the plate, decreasing in concentration towards the right of the plate. For example, 170 μL of the highest concentration of an antimicrobial was dispensed in column 1 (left of plate). Each of the rest of the columns received 170 μL of saline. Column 2 received 170 μL of antimicrobial, making for a 1:2 dilution (or 50% of original concentration). Contents of Column 2 were then transferred to 3, then from 3 to 4, and so forth. Each well was supplemented with 20% media (TSB for S. epidermidis and P. aeruginosa and SDB for C. albicans), thereby ensuring the viability of the cells over the test time period (24 hours). Positive control wells had 20% media in saline. The bacterial plate was removed from the incubator, and bacterial suspension discarded (adhered cells remain on plate). The antimicrobial formulations identified in Table 4 were then added to the bacterial plate and incubated in a standard incubator at 37° C. for 24 hours. After this time period, solutions in the plate were discarded and plates were rinsed with 200 μL of saline. The cells were then fixed with 200 μL of 95% ethanol for 30 minutes, and allowed to air dry for 10 minutes. Next, the cells were stained for 20 minutes with 250 μL of a filtered solution of 2% crystal violet dye. The plates were then rinsed three times with water, and the 2% crystal violet dye was solubilized with 300 μL of 95% ethanol. The plates were allowed to stand for 10 minutes to complete solubilization and then the plates were read on a spectrophotometer at 570 nm absorbance, wherein high absorbance readings of >0.600 indicated microbial growth. Columns in the plate that had no growth were recorded as the […] (MBIC). FIG. 2 illustrates the MBIC corresponding to the specific local anesthetics.

[3] = test system: S. epidermidis; assay: as above; assay type: cell-based, Staphylococcus epidermidis; conditions: for MBIC: adhered cells, 24 hours incubation; for MBIC Assuming 2 mL lock volume: amount in 2 mL lock volume
Method: as §1, §2, §3

Compound | volume at 50% coagulation ([1]; Rep 1) [µL] | Equivalence to Heparin ([1]; per replicate, HCl) | Equivalence to Heparin ([1]; per replicate, listed as tetracaine, HCl) [U/mL] | 50% clotting range ([1]; final concentration in tube, 1 hour at room temperature, per replicate, HCl) | MBIC ([2]; HCl) [mg/mL] | MBIC ([2]; listed as tetracaine, HCl) [mg/mL] | MBIC Assuming 2 mL lock volume [2] [mg] | MBIC ([3]; HCl) [mg/mL] | MBIC ([3]; listed as tetracaine, HCl) [mg/mL] | MBIC Assuming 2 mL lock volume [3] [mg] | coagulation ([1]; at all concentrations tested) [%] | MBIC [2] [mg/mL] | MBIC [3] [mg/mL]
CCCCNc1ccc(C(=O)OCCN(C)C)cc1.Cl [Tetracaine, Tetracaine HCl] | 350 | 6.06 U/mL and 6.24 U/mL (2×) | 6.25 | 5.4 mg/mL (2×) and 5.1-5.4 mg/mL | 6.41 | 1.88 | 12.82 | 0.94 | 0.9 | 1.88 |  |  | 
CCCCN1CCCCC1C(=O)Nc1c(C)cccc1C.Cl (stereo not drawn) [Bupivacaine, Bupivacaine HCl] |  |  |  |  |  |  | 32.5 |  |  | 16.24 | 75 | 16.25 | 8.12
